SMILES | melting point
O=C(O[C@@H]1CC[C@@H](c2cccc(F)c2F)Cc2ccc(Cl)nc21)N1CCC(n2c(=O)[nH]c3ncccc32)CC1 | 248 °C
CCOC(=O)c1ccc2c(c(C)nn2C)c1C#N | 170 to 176 °C
O=C(NCC(=O)C(F)(F)F)c1cnc(OCC(F)(F)F)c(-c2ccc(Cl)c(Cl)c2)c1 | 122 to 124 °C
CC(=O)C1C(Cl)CC2C3CCC4CC(O)CCC4(C)C3C(=O)CC21C (configuration not stated) | 226 to 227 °C
CCOC(=O)C(CC(=O)O)(Cc1cn(C)c2ccccc12)C(=O)OCC | 127 to 130 °C
CCCOc1ccc(Br)cc1-c1nc2c(C)cccc2c(=O)[nH]1 | 179 to 180 °C
CCC(=N)NC(=O)Nc1ccc(Cl)cc1 | 191 to 192 °C
Cc1cc(-n2ccnc2)c2cccc(OCc3c(Cl)ccc(S(=O)(=O)N4CCC[C@H]4C(=O)NCC4CCN(CCCO)CC4)c3Cl)c2n1 | 90 °C
NNc1nc2ccc(OC(F)(F)F)cc2s1 | 208 °C
C1CCN(ON2CCCC2)C1 | 99 °C
CCCCCCCNC(=O)Nc1ccccc1C(=O)NCC1c2ccccc2COc2ccc(Br)cc21 (configuration not stated) | 71 to 76 °C
Cc1cc(S(=O)(=O)N2c3cc(F)ccc3-n3cccc3C2C)ccc1O (configuration not stated) | 191 to 193 °C
Cc1cc(C)nc(N2CC=C(N)N2)n1 | 205 °C
CC(=O)OCC1COc2c(C(=O)O)cc(Cl)c(Cl)c2O1 (configuration not stated) | 144 to 145 °C
CCOC(=O)c1ccc(-c2ccc(O)cc2)cc1 | 144 to 146 °C
O=C(O)CCC(=O)c1ccc(N2CCOCC2)cc1 | 167 to 168 °C
CCCCn1c(=O)c(NC(=O)Nc2c(C(C)C)cccc2C(C)C)c(-c2cccc(OCCO)c2)c2cccnc21 | 106 to 110 °C
COc1ccc(CCN2C=CC=C3C2=Nc2cc(C(F)(F)F)ccc2S(=O)(=O)N3C)cc1 | 43 to 44 °C
CCc1nn(COC(N)=O)c(CC)c1Cc1cc(Cl)cc(Cl)c1 | 153 to 155 °C
CCOP(=O)(OCC)SCS(=O)C(C)(C)C (configuration not stated) | 34.5 to 36 °C
O[C@@H]1C=C[C@H](n2cnc3c(NCC(c4ccccc4)c4ccccc4)ncnc32)C1 (racemic) | 165 to 169 °C
CCc1cc(C(F)(C(F)(F)F)C(F)(F)F)cc(C)c1NC(=O)c1cccc(N=S=O)c1 | 100 to 108 °C
CC(C)(C)c1cc(CCC(=O)ON(Cc2ccccc2)Cc2ccccc2)cc(C(C)(C)C)c1O | 93 to 95.5 °C
O=C1N(Cc2ccc(C(F)(F)F)o2)c2cccc(Cl)c2C12COc1cc3c(cc12)CCO3 (configuration not stated) | 166 to 169 °C
COc1cc(N2CCC(N3CCCN(C)CC3)CC2)ccc1Nc1ncc2ccc(-c3ccccc3OC)n2n1 | 69 to 76 °C

SMILES | melting point
O=C(Nc1ccc(-n2ncn(-c3ccc(OCC(F)(F)C(F)F)cc3)c2=O)cc1)Oc1ccccc1 | 204 to 206 °C
CC1Oc2cc(F)c(N)cc2NC1=O (configuration not stated) | 208 to 211 °C
O=C(O)CC1CCC2CC(=O)NC12 (configuration not stated) | 186 to 189 °C
CC(C)(C)c1ccc(CSc2ccc3c(c2)OCC(=O)N3)cc1 | 134 to 136 °C
CCCOc1ccc(/C=C/c2nc3c([nH]2)c(=O)n(CC)c(=O)n3CC)cc1 | > 270 °C
Cn1nccc1OCc1c(S(C)(=O)=O)ccc(C(=O)O)c1Cl | 197 °C
CNc1cc2c(cc1C)c(=O)c(C(=O)O)cn2-c1cc(N)c(F)cc1F | > 280 °C
Cc1cc(O)cc(C)c1C=O | 190 °C
CCOC(=O)C(OCc1ccc(Cl)cc1)(C(F)(F)F)C(F)(F)F | 33 °C
CCOC(=O)c1c(CCN(CC)CC)nc2cc(OC)c(OC)cc2c1-c1ccc(OC)c(OC)c1 | 76 to 78 °C
CN(c1ncccc1[N+](=O)[O-])C1CCNCC1 | 116 to 117 °C
Fc1cc(F)c2c(c1)CCC2n1cc[nH]c1=S (configuration not stated) | 212 to 215 °C
CSC(=NCCSCc1ccccn1)NC#N | 85 to 88 °C
COC(C)(C)C(=O)COc1ccc(Cl)cc1Cl | 45.5 to 47.5 °C
CCCC(=O)C(=O)NCC(OCC)(OCC)c1ccncc1 | 95 to 96 °C
CCOC(=O)C1=C(C)NC(C)=C(C(=O)OCCBr)C1c1cccc([N+](=O)[O-])c1 (configuration not stated) | 158 to 159 °C
COC(=O)C(=Cc1ccc(F)c(Cl)c1)N=[N+]=[N-] | 72 to 74 °C
COc1ccc(C2=CC(=Nc3c(C)cc(C)cc3C)N(C)CN2)cc1OC | 165 to 166 °C
CS(=O)(=O)c1ccc(C(=O)O)c([N+](=O)[O-])c1 | 204 to 206 °C
NC(=O)N1CCc2cc(S(N)(=O)=O)sc2C1 | 205 to 208 °C
CCOC(=S)SCc1cc(OC)nc(N)n1 | 91 to 93 °C
O=[N+]([O-])c1cnccc1Oc1ccc2[nH]ccc2c1 | 182 to 184 °C
COC(=O)OC1=C(c2cc(C)ccc2C)C(=O)NC12CCN(OC)CC2 | 186 to 188 °C
N[C@@H](Cc1cccc(OC(F)(F)C(F)F)c1)[C@H](O)c1ccc(Oc2ccccc2)cc1 (racemic) | 85 to 86 °C

Continued, values first:

melting point | SMILES
278 to 280 °C | Fc1ccc(CC2CCN(CCOc3ccc4c(c3)=NC(=S)N=4)CC2)cc1
152 °C | O=C(O)c1c(Cl)cc(N2C(=O)N3CCCC3(Cc3ccc(Br)cc3)C2=O)cc1Cl (configuration not stated)
75 to 85 °C | CCCc1c(C(=O)N(C)Cc2ccc3c(Br)c(OCc4nnn[nH]4)ccc3c2)cnn1-c1ccccc1
124 to 128 °C | CN(C)C1CC2c3ccccc3Cc3ccccc3N2C1 (configuration not stated)
215 to 218 °C | O=C(Nc1nc(-c2ccco2)c(-c2ccc(=O)n(Cc3ccccc3)c2)s1)c1ccncc1
211 to 214 °C | Nc1ccc(C(=O)N2Cc3ccccc3CC3=C2C=CC(Cl)C3)cc1 (configuration not stated)
142 to 143 °C | COc1cc(COc2nn(-c3ccccc3)cc2C=O)ccc1OCc1nc(-c2ccccc2)oc1C
150 °C | O=Cc1c(-c2ccccc2)nc2sc3c(n12)CCCC3
260 to 261 °C | Cc1cccc2c(=O)nc(-c3cccc(C(=O)O)n3)sc12
111 to 113 °C | CN(CCCC(=O)O)c1ccc(C(=O)c2ccccc2)cc1
148 to 151 °C | N#CCc1cccc(Cc2nc3c(F)c(F)cc(F)c3s2)c1Cl
169 to 171 °C | COc1ccc(-c2ccc3cc(CO)ccc3c2)cc1C12CC3CC(CC(C3)C1)C2
197 to 199 °C | Nc1sc(-c2cccs2)c(CN(C2CCCCC2)C2CCCCC2)c1C(=O)c1ccc(Cl)cc1
166 to 168 °C | COc1ccccc1NC(=O)Nc1ccc(C2CCN(C(=O)Nc3ccc(OCCO)cc3Cl)CC2)cc1
77 to 94 °C | COc1cc(C2CCN(C[C@H](O)C(F)(F)F)CC2)ccc1Nc1ncc2ccc(-c3ccccc3OC)n2n1
121 to 122 °C | COC(=O)c1ccc(OC2=C3N=C4CCCCC4=C3C(Cc3ccccc3F)C=C2)o1 (configuration not stated)
207 to 209 °C | O=C(NCc1ccc(Cl)cc1)c1cn(-c2ccccc2)c2oc(CCl)cc2c1=O
313 to 316 °C | O=C1NCC(c2ccc3[nH]c(-c4ccncc4)cc3c2)=NN1
225 °C | Cc1nc2c(Cc3ccccc3)cnn2c(=O)[nH]1
73 to 75 °C | COc1ccc(Br)cc1OC(=O)c1ccccc1
242 °C | CC(=O)Nc1ccc(O)c(CN2CCC(NC(=O)c3ccccc3)CC2)c1
138 °C | Cc1oc(-c2ccccc2)nc1CCOc1ccc(CC(C(N)=O)C(=O)O)cc1 (configuration not stated)
194 to 195 °C | O=C(O)CN(C(=O)CCCOc1ccc2c(c1)CN1CC(=O)NC1=N2)C1CCCCC1
214 to 216 °C | COC(=O)C1C(=O)Nc2cccc(C(F)(F)F)c2CC1c1ccccc1OC (configuration not stated)

melting point | SMILES
145 to 147 °C | COC(=O)C1(n2c(=O)[nH]c3ccccc3c2=O)CCCCC1
205 °C | CC(C)c1noc(-c2ccccc2)c1-c1ccc(S(N)(=O)=O)cc1
40 °C | Cc1csc2c1CCN(C)CC2c1ccccc1 (configuration not stated)
175 to 176 °C | Clc1ccc2nc(Cl)nc(-c3ccccc3Cl)c2c1
117 to 118 °C | CC(Oc1ccc(-c2ccc(CC(=O)NC3CC3)cc2)cc1)C(O)CCc1cccnc1 (configuration not stated)
312 to 318 °C | Cc1[nH]cc2c(=O)n(-c3ccc(Cl)cc3)nc-2c1-c1cccc(-c2cccnc2)c1
288 to 291 °C | O=C(Nc1nc(-c2ccco2)c(C(=O)c2ccn(Cc3ccccc3)c(=O)c2)s1)c1ccncc1
154 to 155 °C | Cc1cc(=O)n2cccc(OCC=Cc3ccccc3)c2n1
98 to 99 °C | COc1ccc(C(=O)CC2CCCCC2=O)cc1 (configuration not stated)
75 to 76 °C | Cc1nc(-c2ccc(Cl)cc2)c(CBr)o1
65 to 67 °C | CC(C)(C)c1cc(N)n(-c2ccccc2)n1
270 to 272 °C | Cc1cc(-c2ccc(C(F)(F)F)cc2)nc2c(C(=O)Nc3cccc(S(N)(=O)=O)c3)cnn12
230 to 232 °C | CN(c1ccc2ccccc2c1)c1nc(=O)c2cccnc2s1
139 to 163 °C | O=S1(=O)N=C(NCCCOc2cccc(CN3CCCCC3)c2)c2ccc(F)cc21
83 to 85 °C | O=C(OCC1CCCO1)C1Oc2ccccc2Cc2ccccc2O1 (configuration not stated)
295 to 300 °C | O=C(O)c1ccc(-c2ccc3cc(O)c(C45CC6CC(CC(C6)C4)C5)cc3c2)cc1
136 °C | CC(=CC(=O)c1ccccc1)NC(Cc1ccc(-c2cccc(CNCC(=O)c3ccccc3)c2)cc1)C(=O)O (configuration not stated)
286 to 288 °C | O=S(=O)(Nc1ccc(-c2n[nH]c3c2Cc2ccccc2-3)cc1)c1ccccc1
134 to 136 °C | O=C1C2=C(CCCC2)C(=O)N1c1ccc(Cl)c2c1CC(CBr)O2 (configuration not stated)
95 to 106 °C | O=C(O)Cc1ccc(CNC(=O)C2Cc3ccccc3N2S(=O)(=O)c2ccc(-c3cccc(C(F)(F)F)c3)cc2)c(Cl)c1 (configuration not stated)
165 °C | O=C(O)c1csc(-c2cccc(Cn3cc(C4c5ccccc5C=Cc5ccccc54)c(=S)[nH]c3=O)c2)n1
224 °C | COc1cccc(O)c1-c1ccc(C[C@H](NC(=O)c2c(Cl)cccc2Cl)C(=O)O)cc1
160 °C | Fc1ccc(Cn2c(NC3CCN(CCSc4nc5cccnc5s4)CC3)nc3ccccc32)cc1
154 to 155 °C | COC(=O)c1ccc2oc(-c3ccccc3OC(C)C)cc(=O)c2c1

— a melting point compilation (Tetko et al.; mined from patent text by program, amines drawn as free bases though some values may be those of a salt)
